{"source": "patent US8216975B2", "about": "“Method of labelling soya varieties” (priority 2004, dated 2012)", "key": {"soybean varieties": {"tested_on": "soybean varieties", "assay": "Greenhouse pot test: soybean varieties sown in soil treated with HPPD inhibitor, ED20 and factor versus reference variety", "type": "in vivo, Glycine max", "method": "Test Method for the Selection of Suitable Soybean Varieties: Categorisation of the Soybean Varieties According to Their Sensitivity to HPPD Herbicide Residues and Comparison with Sensitive and Non-Sensitive Soybean Varieties:\n• 1. A non-sterilised soil is treated with the HPPD inhibitor being tested. The HPPD inhibitor being tested is applied in concentrations of 0, 20, 40 and 80 ppb and incorporated homogeneously into the soil. The soil so treated is then introduced into pots (2⅝ inch×2⅝ inch×3½ inch) and lightly firmed. • 2. Sowing: The soybean varieties being tested are sown in the pots treated as described above as follows: 3 seed grains are used per pot, the seeds being pressed lightly into the soil (under the surface of the soil) and covered over with soil. In each test, varieties having known sensitivity are also tested as reference. These are the soybean varieties NK S40-R9 and Pioneer P94B01. Shortly after germination, the plants are thinned out to two plants per pot. The plants receive an optimum supply of water and nutrients and are kept in a greenhouse at 20-24° C., with 16 hours exposure to light per day. • 3. 3-4 Weeks after sowing, the condition of the plants is evaluated visually. Symptoms of damage to the plants, such as chlorosis, bleaching and growth inhibition (‘stunting’), are assessed and compared with an untreated soya plant of the same variety. • 4. Calculation: The repetitions are combined and a linear regression analysis is carried out with non-transformed data. ED20 values (=effective dose at which damage is 20% in comparison with the untreated control) are calculated from the regression curve for each variety. The soybeans are grouped according to whether they are “sensitive” or “tolerant” by comparing the ED20 values of the test varieties with those of the standard varieties, that is to say by determining a factor with respect to the reference variety."}, "[1]": {"tested_on": "soya varieties S40R-9 and S24-K4", "assay": "Field carry-over test: phytotoxicity to soya grown as subsequent crop to maize treated with HPPD herbicide", "type": "in vivo, Glycine max", "text": "Biological Test Method for the Selection of Suitable Sensitive Reference Soybean Varieties in the Field:\n• a) Compound No. 2.13 according to Table 2 below was applied pre- or post-emergence to maize in three repetitions in a field in the vicinity of Ames, Iowa, USA, under practical conditions at a suitable time (pre-emergence April-May; post-emergence May-June) in a field trial using concentrations of 100, 200 and 400 g a.i./ha. Application of fertilizer, pest control and other cultivation measures were carried out in accordance with the standards customary in agriculture. Because not all weeds were controlled by the test herbicides, the test plots were kept weed-free over the entire vegetation period by the application of non-soil-active herbicides. • b) The plots were harvested and labeled in the autumn. At the customary time in […] (April/May) of the following year, the soybeans to be tested were sown in the labeled plots from the previous year and the condition of the plants on reaching the different physiological growth stages was evaluated (see Table 1). • c) The evaluation was carried out in % general phytotoxicity, which records any effects such as growth inhibition, bleaching, chlorosis, scorching or thinning. 0-4% phytotoxicity is acceptable, >4% is not acceptable under practical field conditions.\nTables A and B: Phytotoxicity of the soya varieties S40R-9 and S24-K4 as a subsequent crop to maize in which weed control has been carried out using the herbicide of formula 2.13. The herbicide was applied in an amount of 400 g/ha; in Table B an oil adjuvant (Agridex) was additionally used in an amount of 1.25% by volume."}}, "data": [{"compound": "COCCOCc1nc(C(F)(F)F)ccc1C(=O)C1=C(O)C2CCC(C2)C1=O", "note": "(stereo not drawn) [Compound No. 2.13]", "values": [{"measurement": "Factor with respect to reference variety NK S40-R9, based on ED20 values", "setting": "soybean varieties; soya variety AGI 7370 RR", "value": 1.0}, {"measurement": "Factor with respect to reference variety NK S40-R9, based on ED20 values", "setting": "soybean varieties; soya variety Agripro 2502 RR", "value": 5.3}, {"measurement": "Factor with respect to reference variety NK S40-R9, based on ED20 values", "setting": "soybean varieties; soya variety Agripro 2547 RR/N", "value": 4.7}, {"measurement": "Factor with respect to reference variety NK S40-R9, based on ED20 values", "setting": "soybean varieties; soya variety Agway APK 190", "value": 12.2}, {"measurement": "Factor with respect to reference variety NK S40-R9, based on ED20 values", "setting": "soybean varieties; soya variety Agway APK256 RR", "value": 5.6}, {"measurement": "Factor with respect to reference variety NK S40-R9, based on ED20 values", "setting": "soybean varieties; soya variety Asgrow 1602", "value": 5.4}, {"measurement": "Factor with respect to reference variety NK S40-R9, based on ED20 values", "setting": "soybean varieties; soya variety Asgrow 2105", "value": 6.5}, {"measurement": "Factor with respect to reference variety NK S40-R9, based on ED20 values", "setting": "soybean varieties; soya variety Asgrow 2705", "value": 5.0}, {"measurement": "Factor with respect to reference variety NK S40-R9, based on ED20 values", "setting": "soybean varieties; soya variety Asgrow AG1401 RR", "value": 4.5}, {"measurement": "Factor with respect to reference variety NK S40-R9, based on ED20 values", "setting": "soybean varieties; soya variety Asgrow AG2302", "value": 4.7}, {"measurement": "Factor with respect to reference variety NK S40-R9, based on ED20 values", "setting": "soybean varieties; soya variety Asgrow AG3902", "value": 4.7}, {"measurement": "Factor with respect to reference variety NK S40-R9, based on ED20 values", "setting": "soybean varieties; soya variety Asgrow AG4403", "value": 8.5}, {"measurement": "Factor with respect to reference variety NK S40-R9, based on ED20 values", "setting": "soybean varieties; soya variety Beck's 336NRR", "value": 4.5}, {"measurement": "Factor with respect to reference variety NK S40-R9, based on ED20 values", "setting": "soybean varieties; soya variety Beck's 366NRR", "value": 4.9}, {"measurement": "Factor with respect to reference variety NK S40-R9, based on ED20 values", "setting": "soybean varieties; soya variety D King 4868RR", "value": 4.4}, {"measurement": "Factor with respect to reference variety NK S40-R9, based on ED20 values", "setting": "soybean varieties; soya variety Dekalb DK32-51", "value": 5.3}, {"measurement": "Factor with respect to reference variety NK S40-R9, based on ED20 values", "setting": "soybean varieties; soya variety Dekalb DKB23-51", "value": 5.8}, {"measurement": "Factor with respect to reference variety NK S40-R9, based on ED20 values", "setting": "soybean varieties; soya variety Dekalb DKB36-51", "value": 4.2}, {"measurement": "Factor with respect to reference variety NK S40-R9, based on ED20 values", "setting": "soybean varieties; soya variety Garst 2677 RR", "value": 4.1}, {"measurement": "Factor with respect to reference variety NK S40-R9, based on ED20 values", "setting": "soybean varieties; soya variety Gld H H3505RR", "value": 5.8}, {"measurement": "Factor with respect to reference variety NK S40-R9, based on ED20 values", "setting": "soybean varieties; soya variety Kruger 279 RR", "value": 3.4}, {"measurement": "Factor with respect to reference variety NK S40-R9, based on ED20 values", "setting": "soybean varieties; soya variety Kruger 323 RR", "value": 4.3}, {"measurement": "Factor with respect to reference variety NK S40-R9, based on ED20 values", "setting": "soybean varieties; soya variety MFA RT 3660N", "value": 4.3}, {"measurement": "Factor with respect to reference variety NK S40-R9, based on ED20 values", "setting": "soybean varieties; soya variety Mustang M-222RR", "value": 0.8}, {"measurement": "Factor with respect to reference variety NK S40-R9, based on ED20 values", "setting": "soybean varieties; soya variety NK S24-K4", "value": 3.6}, {"measurement": "Factor with respect to reference variety NK S40-R9, based on ED20 values", "setting": "soybean varieties; soya variety NK S35-A6", "value": 5.3}, {"measurement": "Factor with respect to reference variety NK S40-R9, based on ED20 values", "setting": "soybean varieties; soya variety NK S40-R9 (reference variety)", "value": 1.0}, {"measurement": "Factor with respect to reference variety NK S40-R9, based on ED20 values", "setting": "soybean varieties; soya variety NK S46-W8", "value": 0.5}, {"measurement": "Factor with respect to reference variety NK S40-R9, based on ED20 values", "setting": "soybean varieties; soya variety Pioneer 90B51", "value": 1.1}, {"measurement": "Factor with respect to reference variety NK S40-R9, based on ED20 values", "setting": "soybean varieties; soya variety Pioneer 91B33", "value": 4.9}, {"measurement": "Factor with respect to reference variety NK S40-R9, based on ED20 values", "setting": "soybean varieties; soya variety Pioneer 91B91", "value": 3.0}, {"measurement": "Factor with respect to reference variety NK S40-R9, based on ED20 values", "setting": "soybean varieties; soya variety Pioneer 93B67", "value": 1.1}, {"measurement": "Factor with respect to reference variety NK S40-R9, based on ED20 values", "setting": "soybean varieties; soya variety Pioneer 94B01", "value": 0.8}, {"measurement": "Factor with respect to reference variety NK S40-R9, based on ED20 values", "setting": "soybean varieties; soya variety Pioneer 94B54", "value": 1.6}, {"measurement": "Factor with respect to reference variety NK S40-R9, based on ED20 values", "setting": "soybean varieties; soya variety Pioneer 9492", "value": 1.0}, {"measurement": "Factor with respect to reference variety NK S40-R9, based on ED20 values", "setting": "soybean varieties; soya variety Pioneer P92B38", "value": 4.3}, {"measurement": "Factor with respect to reference variety NK S40-R9, based on ED20 values", "setting": "soybean varieties; soya variety S21-H7 STS", "value": 5.03}, {"measurement": "Factor with respect to reference variety NK S40-R9, based on ED20 values", "setting": "soybean varieties; soya variety S34-A9 STS", "value": 8.0}, {"measurement": "Factor with respect to reference variety NK S40-R9, based on ED20 values", "setting": "soybean varieties; soya variety S. Grow SG948RR", "value": 1.2}, {"measurement": "% Phytotoxicity (mean value)", "setting": "[1]; Table A, soya variety NK S40-R9, 400 g/ha on maize, 29 days after sowing, 404 days after herbicide application, BBCH12/BBCH13", "value": 6.67, "unit": "%"}, {"measurement": "% Phytotoxicity (mean value)", "setting": "[1]; Table A, soya variety NK S40-R9, 400 g/ha on maize, 42 days after sowing, 417 days after herbicide application, BBCH14/BBCH14", "value": 13, "unit": "%"}, {"measurement": "% Phytotoxicity (mean value)", "setting": "[1]; Table A, soya variety NK S40-R9, 400 g/ha on maize, 56 days after sowing, 431 days after herbicide application, BBCH16/BBCH17", "value": 14.33, "unit": "%"}, {"measurement": "% Phytotoxicity (mean value)", "setting": "[1]; Table A, soya variety NK-S24-K4, 400 g/ha on maize, 29 days after sowing, 404 days after herbicide application, BBCH12/BBCH13", "value": 0, "unit": "%"}, {"measurement": "% Phytotoxicity (mean value)", "setting": "[1]; Table A, soya variety NK-S24-K4, 400 g/ha on maize, 42 days after sowing, 417 days after herbicide application, BBCH14/BBCH14", "value": 0, "unit": "%"}, {"measurement": "% Phytotoxicity (mean value)", "setting": "[1]; Table A, soya variety NK-S24-K4, 400 g/ha on maize, 56 days after sowing, 431 days after herbicide application, BBCH16/BBCH17", "value": 0, "unit": "%"}, {"measurement": "% Phytotoxicity (mean value)", "setting": "[1]; Table B, soya variety NK S40-R9, 400 g/ha on maize plus oil adjuvant (Agridex) 1.25% by volume, 29 days after sowing, 404 days after herbicide application, BBCH12/BBCH13", "value": 36.67, "unit": "%"}, {"measurement": "% Phytotoxicity (mean value)", "setting": "[1]; Table B, soya variety NK S40-R9, 400 g/ha on maize plus oil adjuvant (Agridex) 1.25% by volume, 42 days after sowing, 417 days after herbicide application, BBCH14/BBCH14", "value": 49.33, "unit": "%"}, {"measurement": "% Phytotoxicity (mean value)", "setting": "[1]; Table B, soya variety NK S40-R9, 400 g/ha on maize plus oil adjuvant (Agridex) 1.25% by volume, 56 days after sowing, 431 days after herbicide application, BBCH16/BBCH17", "value": 56.67, "unit": "%"}, {"measurement": "% Phytotoxicity (mean value)", "setting": "[1]; Table B, soya variety NK-S24-K4, 400 g/ha on maize plus oil adjuvant (Agridex) 1.25% by volume, 29 days after sowing, 404 days after herbicide application, BBCH12/BBCH13", "value": 5.67, "unit": "%"}, {"measurement": "% Phytotoxicity (mean value)", "setting": "[1]; Table B, soya variety NK-S24-K4, 400 g/ha on maize plus oil adjuvant (Agridex) 1.25% by volume, 42 days after sowing, 417 days after herbicide application, BBCH14/BBCH14", "value": 3.33, "unit": "%"}, {"measurement": "% Phytotoxicity (mean value)", "setting": "[1]; Table B, soya variety NK-S24-K4, 400 g/ha on maize plus oil adjuvant (Agridex) 1.25% by volume, 56 days after sowing, 431 days after herbicide application, BBCH16/BBCH17", "value": 1.67, "unit": "%"}]}, {"compound": "CS(=O)(=O)c1ccc(C(=O)C2C(=O)CCCC2=O)c([N+](=O)[O-])c1", "note": "[2.04, reference compound]", "values": [{"measurement": "Factor with respect to reference variety NK S40-R9, based on ED20 values", "setting": "soybean varieties; Table D, soya variety S21-H7 STS", "value": 3.45}, {"measurement": "Factor with respect to reference variety NK S40-R9, based on ED20 values", "setting": "soybean varieties; Table D, soya variety S34-A9 STS", "value": 4.56}, {"measurement": "Factor with respect to reference variety NK S40-R9, based on ED20 values", "setting": "soybean varieties; Table D, soya variety S40-R9 (reference variety)", "value": 1.0}]}]}
